Results published in patent publication US20260234183A1, “SOLID STATE FORMS OF FOSGONIMETON AND SALTS THEREOF” (ASSIA CHEMICAL INDUSTRIES LTD., priority 2023, published 2026).
Entries after “also recorded” stand apart in the source; their conditions may differ. Where a name gives a salt, the structure may show the parent alone. Square brackets hold non-standard residues; d marks the D form. Peptide text beside a SMILES is read from it. * marks the point of attachment. pY = N[C@@H](Cc1ccc(OP(=O)(O)O)cc1)C(=O)O; Hexanoyl = CCCCCC(=O)*; Ahx = NCCCCCC(=O)O

Tests used:
Assay type in all cases: physicochemical
[1] = Heating stress test, XRPD analysis; conditions: 100° C./60 minutes
Protocol: (§1) Sample is applied directly on a silicon plate holder. The X-ray powder diffraction pattern was measured with Philips X′Pert PRO X-ray powder diffractometer, equipped with Cu irradiation source=1.54184 Å (Ångström), X'Celerator (2.022° 2θ) detector. Scanning parameters: angle range: 3-40 deg., step size 0.0167, time per step 37 s, continuous scan.
A sample of Fosgonimeton mono sodium salt form N2 was subjected to heating to 100° C. for 60 minutes.
A sample of Fosgonimeton mono sodium salt form N5 was subjected to heating to 100° C. for 60 minutes.
A sample of Fosgonimeton mono potassium salt form K1 was subjected to heating to 100° C. for 60 minutes.
A sample of Fosgonimeton form 1 was subjected to heating to 100° C. for 60 minutes.

[2] = Pressure stress test (Specac Hydraulic Press), XRPD analysis; conditions: 2 tons/2 minutes
Protocol: as §1
A sample of Fosgonimeton mono sodium salt form N2 was subjected to a pressure of 2 ton (Specac Hydraulic Press, set to 2 tons).
A sample of Fosgonimeton mono sodium salt form N5 was subjected to a pressure of 2 ton (Specac Hydraulic Press, set to 2 tons).
A sample of Fosgonimeton mono potassium salt form K1 was subjected to a pressure of 2 tons (Specac Hydraulic Press, set to 2 tons).
A sample of Fosgonimeton form 1 was subjected to a pressure of 2 tons (Specac Hydraulic Press, set to 2 tons).

[3] = Slurry experiments in solvent, XRPD analysis after filtration; conditions: for XRPD after slurry experiments: various solvents, ambient temperature, 1 or 7 days
Protocol: as §1
(§2) Samples of Fosgonimeton mono sodium salt form N2 were subjected to slurry and to sauna conditions in various conditions. In the slurry experiments, 50 mg of the sample is placed in a 2 mL glass vial with 0.5 mL of solvent. Obtained suspension is stirred at ambient temperature for 1 or 7 days. XRPD analysis is performed on crystalline material after filtration. In the sauna experiments, 50 mg of crystalline material is placed in an Eppendorf tube. 0.5 mL of solvent is placed in a sealed 10 mL glass vial, along with Eppendorf tube. Crystalline material is checked by XRPD analysis after 1 or 7 days.
as §2, with “N5” for “N2”
as §2, with “potassium” for “sodium”, “K1” for “N2”
as §2, with “Fosgonimeton” for “Fosgonimeton mono sodium salt”, “form 1” for “form N2”, “to Sauna” for “to sauna”

[4] = Sauna experiments (solvent vapour in sealed vial), XRPD analysis; conditions: for XRPD after sauna experiments: various solvents, 1 or 7 days
Protocol: as §1, §2
as §2, with “N5” for “N2”
as §2, with “potassium” for “sodium”, “K1” for “N2”
as §2, with “Fosgonimeton” for “Fosgonimeton mono sodium salt”, “form 1” for “form N2”, “to Sauna” for “to sauna”

Row | Structure (SMILES) | XRPD after Slurry ([3]; 2-Propanol/20-25° C./1 day) | XRPD after Slurry ([3]; Acetone/20-25° C./1 day) | XRPD after Slurry ([3]; Ethanol, 96%/20-25° C./1 day) | XRPD after Slurry ([3]; Ethyl acetate/20-25° C./1 day) | XRPD after Heating ([1]; mono sodium salt) | XRPD after Pressure ([2]; mono sodium salt) | XRPD after Slurry ([3]; Acetone/20-25° C./7 days) | XRPD after Slurry ([3]; Ethanol, 96%/20-25° C./7 days) | XRPD after slurry experiments [3] | XRPD after Sauna ([4]; 2-Propanol/20-25° C./7 days) | XRPD after Sauna ([4]; Acetone/20-25° C./7 days) | XRPD after Sauna ([4]; Ethanol, 96%/20-25° C./7 days) | XRPD after Sauna ([4]; Ethyl acetate/20-25° C./7 days) | XRPD after Sauna ([4]; Water/20-25° C./7 days) | XRPD after sauna experiments [4] | other results
1 | CCCCCC(=O)N[C@@H](Cc1ccc(OP(=O)(O)O)cc1)C(=O)N[C@H](C(=O)NCCCCCC(N)=O)[C@@H](C)CC [Fosgonimeton form 1, [4-[(2S)-3-[[(2S,3S)-1-[(6-amino-6-oxohexyl)amino]-3-methyl-1-oxopentan-2-yl]amino]-2-(hexanoylamino)-3-oxopropyl]phenyl]dihydrogen phosphate] (Hexanoyl-[pY]-Ile-[Ahx]-NH2) | No polymorphic change | No polymorphic change | No polymorphic change | No polymorphic change | – | – | – | – | – | – | – | – | – | – | – | XRPD after Heating [1]: no polymorphic conversion; also recorded: No polymorphic change; XRPD after Pressure [2]: no polymorphic conversion; also recorded: No polymorphic change
2 | CCCCCC(=O)N[C@@H](Cc1ccc(OP(=O)(O)O)cc1)C(=O)N[C@H](C(=O)NCCCCCC(N)=O)[C@@H](C)CC [Fosgonimeton mono sodium salt form N2, Fosgonimeton mono sodium salt] (Hexanoyl-[pY]-Ile-[Ahx]-NH2) | No polymorphic change | No polymorphic change | No polymorphic change | No polymorphic change | no polymorphic conversion; also recorded: No polymorphic change | no polymorphic conversion; also recorded: No polymorphic change | No polymorphic change | No polymorphic change | no change in the starting material | No polymorphic change | No polymorphic change | No polymorphic change | No polymorphic change | No polymorphic change | no change in the starting material | XRPD after Slurry ([3]; Water/20-25° C./7 days): No polymorphic change
3 | CCCCCC(=O)N[C@@H](Cc1ccc(OP(=O)(O)O)cc1)C(=O)N[C@H](C(=O)NCCCCCC(N)=O)[C@@H](C)CC [Fosgonimeton mono sodium salt form N5, Fosgonimeton mono sodium salt] (Hexanoyl-[pY]-Ile-[Ahx]-NH2) | No polymorphic change | – | – | No polymorphic change | no polymorphic conversion | no polymorphic conversion; also recorded: No polymorphic change | No polymorphic change | – | no change in the starting material | No polymorphic change | – | No polymorphic change | No polymorphic change | – | no change in the starting material | –
4 | CCCCCC(=O)N[C@@H](Cc1ccc(OP(=O)(O)O)cc1)C(=O)N[C@H](C(=O)NCCCCCC(N)=O)[C@@H](C)CC [Fosgonimeton mono potassium salt form K1, Fosgonimeton mono potassium salt] (Hexanoyl-[pY]-Ile-[Ahx]-NH2) | – | – | – | – | – | – | No polymorphic change | No polymorphic change | no change in the starting material | No polymorphic change | No polymorphic change | No polymorphic change | No polymorphic change | No polymorphic change | no change in the starting material | XRPD after Heating ([1]; mono potassium salt): no polymorphic conversion; also recorded: No polymorphic change; XRPD after Pressure ([2]; mono potassium salt): no polymorphic conversion; also recorded: No polymorphic change; XRPD after Slurry ([3]; 2-Propanol/20-25° C./7 days): No polymorphic change; XRPD after Slurry ([3]; Ethyl acetate/20-25° C./7 days): No polymorphic change
